Test results from patent US12012386B2, “Olaparib oxalic acid cocrystals and their pharmaceutical use” (NUFORMIX TECHNOLOGIES LIMITED, priority 2020, dated 2024).
≈ marks a conversion by molar mass, not a printed value. Entries after “also recorded” stand apart in the source; their conditions may differ.

Legend:
[1] = Solid-state stability study, accelerated conditions (40° C./75% RH, 4 months); assay type: physicochemical; settings: for stability to polymorph conversion or hydrate formation on long storage (summary of Tables 4 and 5): 4 months accelerated conditions and 6 months ambient conditions; for Appearance / XRPD analysis: 40° C./75% RH - 4 months, sealed container
Procedure: A study was carried out to examine the physical stability of the olaparib oxalic acid cocrystals with respect to solid form conversion or signs of decomposition over time under both ambient and accelerated conditions. 50 mg each of the 2:3 olaparib oxalic acid cocrystal, 1:1 olaparib oxalic acid cocrystal, and 2:1 olaparib oxalic acid cocrystal were separately placed in a sealed container at 40° C. and 75% relative humidity and stored under these conditions for 4 months. After this time, all samples remained as white solids with no signs of deliquescence.

[2] = Solid-state stability study, ambient conditions (6 months); assay type: physicochemical; settings: clear glass vial
Procedure: A second stability study was carried out where 50 mg each of the 2:3 olaparib oxalic acid cocrystal, 1:1 olaparib oxalic acid cocrystal, and 2:1 olaparib oxalic acid cocrystal were separately placed in a clear glass vial which was then stored under ambient conditions for 6 months. After this time, all the cocrystals remained as white solids with no signs of colour change.

[3] = Dissolution study in simulated intestinal fluid (FaSSIF V2); assay type: physicochemical; settings: from four minutes onwards; 50 ml FaSSIF V2, pH 6.5, 37° C.; FIG. 12
Source text: For BCS class IV drugs, such as olaparib, where both solubility and permeability are limited, the rate of dissolution of the drug form used can be the controlling factor in the overall absorption and thus the bioavailability of a drug. This becomes even more influential as the dose of a drug increases. Given the high dose of olaparib needed in its current marketed indications it is likely that a high dose may be needed for use in alternative conditions, thus finding a crystalline form of olaparib that has a high dissolution rate is important. A study was, therefore, carried out to examine the rate of dissolution of the 2:3 olaparib oxalic acid cocrystal, 1:1 olaparib oxalic acid cocrystal, and 2:1 olaparib oxalic acid compared with the 1:1 olaparib urea cocrystal of CN 105753789 and the pure crystalline olaparib form A. The dissolution study was carried out using 50 ml simulated intestinal fluid (FaSSIF V2) at pH 6.5 (37° C.) using a quantity of each olaparib form equivalent to 25 mg olaparib. […] Detection and quantification of olaparib was performed by in-situ UV-spectroscopy using a fibre-optic probe, allowing instantaneous data collection from the point of sample introduction. UV absorption data was converted to mg/ml (±0.2 mg/ml) using a previously determined pH dependent molar extinction coefficients to quantitate the amount of dissolved drug.

[4] = Gravimetric Vapour Sorption (GVS) analysis; assay type: physicochemical; settings: for polymorphic form conversion or hydrate formation under raised relative humidity levels: GVS; for moisture reversibly adsorbed (GVS): across the 0-90% relative humidity range at 25° C. under nitrogen; for XRPD analysis post GVS analysis: at both 0% RH and 90% RH
Procedure: Gravimetric Vapor Isotherm (GVS) Analysis: Sorption isotherms were obtained using a Hiden Isochema moisture sorption analyser (model IGAsorp), controlled by IGAsorp Systems Software V6.50.48. The sample was maintained at a constant temperature (25° C.) by the instrument controls. The humidity was controlled by mixing streams of dry and wet nitrogen, with a total flow of 250 ml·min^−1. The instrument was verified for relative humidity content by measuring three calibrated Rotronic salt solutions (10-50-88%). The weight change of the sample was monitored as a function of humidity by a microbalance (accuracy +/−0.005 mg). A defined amount of sample was placed in a tared mesh stainless steel basket under ambient conditions. The sample was held at 50% RH for ˜60 minutes and then the initial desorption cycle was initiated. A full experimental cycle typically consisted of three scans (desorption, sorption and desorption) at a constant temperature (25° C.) and 10% RH intervals over a 0-90% range (60 minutes for each humidity level). Data analysis was performed in Microsoft Excel. […] XRPD analysis at both 0% RH and 90% RH post GVS analysis confirmed that the cocrystal was unchanged. […]

[5] = EMA/CHMP/789139/2014; low solubility and low permeability; cited from earlier work
[6] = pH independent; cited from earlier work

SMILES	stability to polymorph conversion or hydrate formation on long storage (summary of Tables 4 and 5) [1]	Appearance [1]	XRPD analysis [1]	Appearance [2]	XRPD analysis [2]	polymorphic form conversion or hydrate formation under raised relative humidity levels ([4]; 0-90% RH, 25° C.)	moisture reversibly adsorbed (GVS) [4]	XRPD analysis post GVS analysis [4]	other results
O=C(O)C(=O)O.O=C(c1cc(Cc2n[nH]c(=O)c3ccccc23)ccc1F)N1CCN(C(=O)C2CC2)CC1 [1:1 olaparib oxalic acid cocrystal]	stable to polymorph conversion or hydrate formation	No change	No change	No change	No change				
NC(N)=O.O=C(c1cc(Cc2n[nH]c(=O)c3ccccc23)ccc1F)N1CCN(C(=O)C2CC2)CC1 [1:1 olaparib urea cocrystal]									level of dissolution compared with pure crystalline olaparib form A [3]: only achieves the same level of dissolution as pure crystalline olaparib form A
O=C(O)C(=O)O.O=C(c1cc(Cc2n[nH]c(=O)c3ccccc23)ccc1F)N1CCN(C(=O)C2CC2)CC1.O=C(c1cc(Cc2n[nH]c(=O)c3ccccc23)ccc1F)N1CCN(C(=O)C2CC2)CC1 [2:1 olaparib oxalic acid cocrystal]	stable to polymorph conversion or hydrate formation	No change	No change	No change	No change	does not show any polymorphic form conversion or hydrate formation	0.59 % w/w	unchanged	
O=C(O)C(=O)O.O=C(O)C(=O)O.O=C(O)C(=O)O.O=C(c1cc(Cc2n[nH]c(=O)c3ccccc23)ccc1F)N1CCN(C(=O)C2CC2)CC1.O=C(c1cc(Cc2n[nH]c(=O)c3ccccc23)ccc1F)N1CCN(C(=O)C2CC2)CC1 [2:3 olaparib oxalic acid cocrystal]	stable to polymorph conversion or hydrate formation	No change	No change			does not show any polymorphic form conversion or hydrate formation	0.23 % w/w	unchanged	hygroscopicity ([4]; 0-90% RH, 25° C.): not hygroscopic
O=C(c1cc(Cc2n[nH]c(=O)c3ccccc23)ccc1F)N1CCN(C(=O)C2CC2)CC1 [olaparib, 4-[(3-{[4-(cyclopropylcarbonyl)piperazin-1-yl]carbonyl}-4-fluorophenyl)methyl]phthalazin-1(2H)-one]									BCS class [5]: class IV; also recorded: class 4
O=C(c1cc(Cc2n[nH]c(=O)c3ccccc23)ccc1F)N1CCN(C(=O)C2CC2)CC1 [polymorph A]									aqueous solubility [6]: ~100 µg/mL (≈ 230 µM)
